Measured values reported in ChEMBL document CHEMBL5143523, “Construction and activity evaluation of novel benzodioxane derivatives as dual-target antifungal inhibitors” (Eur J Med Chem, 2022).
≈ marks a conversion by molar mass, not a printed value.

How the values were obtained:
Type in all cases: functional
[1] = tested on: Candida albicans; assay: Antifungal activity against Candida albicans assessed as fungal growth inhibition measured after 72 hrs by CLSI protocol based liquid medium dilution method
[2] = tested on: Candida albicans; assay: Antifungal activity against Candida albicans ATCC 10231 assessed as fungal growth inhibition measured after 72 hrs by CLSI protocol based liquid medium dilution method
[3] = tested on: Pichia kudriavzevii; assay: Antifungal activity against Candida krusei ATCC 6258 assessed as fungal growth inhibition measured after 72 hrs by CLSI protocol based liquid medium dilution method
[4] = tested on: Nakaseomyces glabratus; assay: Antifungal activity against Candida glabrata ATCC 0001 assessed as fungal growth inhibition measured after 72 hrs by CLSI protocol based liquid medium dilution method
[5] = tested on: Candida tropicalis; assay: Antifungal activity against Candida tropicalis ATCC 1369 assessed as fungal growth inhibition measured after 72 hrs by CLSI protocol based liquid medium dilution method
[6] = tested on: Aspergillus fumigatus; assay: Antifungal activity against Aspergillus fumigatus KM8001 assessed as fungal growth inhibition measured after 72 hrs by CLSI protocol based liquid medium dilution method

| SMILES | MIC50 [1] | MIC50 [2] | MIC50 [3] | MIC50 [4] | MIC50 [5] | MIC50 [6] |
| --- | --- | --- | --- | --- | --- | --- |
| O=C(NCCc1ccccc1)c1cccc2c1OCCO2 | 8 µg/mL (≈ 28.2 µM) |  |  |  |  |  |
| O=C(N[C@H](Cc1ccccc1)Cn1ccnc1)c1cccc2c1OCCO2 | 0.5 µg/mL (≈ 1.38 µM) | 0.5 µg/mL (≈ 1.38 µM) | 0.5 µg/mL (≈ 1.38 µM) | 0.25 µg/mL (≈ 0.688 µM) | 0.25 µg/mL (≈ 0.688 µM) | > 8 µg/mL |
| O=C(N[C@@H](Cn1cncn1)c1ccccc1)c1cccc2c1OCCO2 |  | 0.125 µg/mL (≈ 0.357 µM) | 0.25 µg/mL (≈ 0.714 µM) | 1 µg/mL (≈ 2.85 µM) | 0.5 µg/mL (≈ 1.43 µM) | > 8 µg/mL |
| O=C(N[C@@H](Cn1ccnc1)c1ccccc1)c1cccc2c1OCCO2 |  | 0.5 µg/mL (≈ 1.43 µM) | 1 µg/mL (≈ 2.86 µM) | 0.5 µg/mL (≈ 1.43 µM) | 0.5 µg/mL (≈ 1.43 µM) | > 8 µg/mL |
| CC(C)[C@H](NC(=O)c1cccc2c1OCCO2)C(=O)N[C@@H](Cn1ccnc1)c1ccccc1 | 0.25 µg/mL (≈ 0.557 µM) | 0.25 µg/mL (≈ 0.557 µM) | 0.25 µg/mL (≈ 0.557 µM) | 0.5 µg/mL (≈ 1.11 µM) | 0.5 µg/mL (≈ 1.11 µM) | > 8 µg/mL |
| CC(C)[C@H](NC(=O)c1ccc2c(c1)OCCO2)C(=O)N[C@@H](Cn1cncn1)c1ccccc1 |  | 0.25 µg/mL (≈ 0.556 µM) | 0.25 µg/mL (≈ 0.556 µM) | 0.5 µg/mL (≈ 1.11 µM) | 0.25 µg/mL (≈ 0.556 µM) | > 8 µg/mL |

Next, values leading:

| MIC50 [1] | MIC50 [2] | MIC50 [3] | MIC50 [4] | MIC50 [5] | MIC50 [6] | SMILES |
| --- | --- | --- | --- | --- | --- | --- |
| 16 µg/mL (≈ 52.1 µM) |  |  |  |  |  | CCOC(=O)[C@@H](NC(=O)c1cccc2c1OCCO2)C(C)C |
|  | 0.25 µg/mL (≈ 0.703 µM) | 0.5 µg/mL (≈ 1.41 µM) | 1 µg/mL (≈ 2.81 µM) | 1 µg/mL (≈ 2.81 µM) | > 8 µg/mL | CC(C)[C@H](NC(=O)c1ccc2c(c1)OCCO2)C(=O)Nc1cccnc1 |
|  | 0.5 µg/mL (≈ 1.35 µM) | 1 µg/mL (≈ 2.71 µM) | 1 µg/mL (≈ 2.71 µM) | 2 µg/mL (≈ 5.41 µM) | 4 µg/mL (≈ 10.8 µM) | CCC(C)[C@H](NC(=O)c1ccc2c(c1)OCCO2)C(=O)Nc1cccnc1 (some centres undefined) |
|  | 0.5 µg/mL (≈ 1.41 µM) | 0.25 µg/mL (≈ 0.703 µM) | 0.5 µg/mL (≈ 1.41 µM) | 0.5 µg/mL (≈ 1.41 µM) | > 8 µg/mL | CC(C)[C@H](NC(=O)c1ccc2c(c1)OCCO2)C(=O)Nc1ccncc1 |
|  | 0.25 µg/mL (≈ 0.557 µM) | 0.5 µg/mL (≈ 1.11 µM) | 0.25 µg/mL (≈ 0.557 µM) | 0.125 µg/mL (≈ 0.279 µM) | 4 µg/mL (≈ 8.92 µM) | CC(C)[C@H](NC(=O)c1ccc2c(c1)OCCO2)C(=O)N[C@@H](Cn1ccnc1)c1ccccc1 |
|  | 0.125 µg/mL (≈ 0.27 µM) | 0.25 µg/mL (≈ 0.539 µM) | 0.5 µg/mL (≈ 1.08 µM) | 0.25 µg/mL (≈ 0.539 µM) | 4 µg/mL (≈ 8.63 µM) | CCC(C)[C@H](NC(=O)c1cccc2c1OCCO2)C(=O)N[C@@H](Cn1cncn1)c1ccccc1 (some centres undefined) |
|  | 0.5 µg/mL (≈ 1.08 µM) | 0.5 µg/mL (≈ 1.08 µM) | 0.25 µg/mL (≈ 0.54 µM) | 0.25 µg/mL (≈ 0.54 µM) | > 8 µg/mL | CCC(C)[C@H](NC(=O)c1cccc2c1OCCO2)C(=O)N[C@@H](Cn1ccnc1)c1ccccc1 (some centres undefined) |
